In data set [1] the test system is Trypanosoma cruzi. Briefly: Antitypanosomal activity against benznidazole-resistant epimastigote stage of Trypanosoma cruzi Y assessed as parasite growth inhibition after 11 days by hemacytometric analysis. In kind it is functional, organism-based.
Data set [2] relates to Trypanosoma cruzi. Briefly: Antitypanosomal activity against benznidazole-resistant trypomastigote stage of Trypanosoma cruzi Y assessed as parasite growth inhibition after 24 hr by hemacytometric analysis. In kind it is functional, organism-based.
Data set [3] relates to Trypanosoma cruzi. As to the kind of experiment: Ratio of nifurtimox IC50 to compound IC50 for benznidazole-resistant trypomastigote stage of Trypanosoma cruzi Y. Format: functional.
A short description of data set [4]: Cytotoxicity against Mus musculus BALB/c (mouse) splenocytes assessed as decrease in [3H]-thymidine incorporation after 24 hr by beta-radiation counting analysis. Format: cell-based, Splenocyte. The note with it: read-out: MNCC. (Incorporation of labelled thymidine or its analogues reports DNA synthesis.)
Data set [5] deals with Trypanosoma cruzi. As to the kind of experiment: Ratio of benznidazole IC50 to compound IC50 for benznidazole-resistant trypomastigote stage of Trypanosoma cruzi Y. In kind it is functional.
A short description of data set [6]: Cytotoxicity against Mus musculus BALB/c (mouse) splenocytes assessed as decrease in [3H]-thymidine incorporation at 1 to 100 ug/mL after 24 hr by beta-radiation counting analysis relative to untreated control. Format: cell-based. The note with it: splenocyte.
Where [7] appears, read: Trypanosoma cruzi, Y, 264 h, read-out: IC50.
The mark [8] stands for this setting: Trypanosoma cruzi, Y, 24 h, read-out: IC50.

In the case of `Cc1ccc(C2=NOC3(SCc4ccccc4C3=O)C2c2ccc(C)cc2)cc1` (stereo unspecified), the IC50 – broadly, the concentration that inhibits the measured activity by half – in the data set with Trypanosoma cruzi [1] (setting [7]) is 19.1 µM; in the data set on Trypanosoma cruzi [2] (setting [8]), 3.78 µM. Further, the “Ratio IC50” value with Trypanosoma cruzi [3] and in the data set on Trypanosoma cruzi [5] was 3 each time. Further, the MNTC at 24 h in data set [4] amounted to 50 µg/mL.
Consider `COc1ccc(C2C(c3ccc(C)cc3)=NOC23SCc2ccccc2C3=O)cc1` (stereo unspecified), for which the results for the IC50 in the data set on Trypanosoma cruzi [1] (setting [7]) and in the data set with Trypanosoma cruzi [2] (setting [8]) were 5.5 µM and 19 µM, respectively. Besides, the MNTC at 24 h in data set [4] came to 5 µg/mL.
As for `COc1ccc(C2=NOC3(SCc4ccccc4C3=O)C2c2ccc(C)cc2)cc1` (stereo unspecified), the results for the IC50 with Trypanosoma cruzi [1] (setting [7]) and in the data set on Trypanosoma cruzi [2] (setting [8]) were 62.5 µM and 1.9 µM, respectively. For the same compound, the “Ratio IC50” value with Trypanosoma cruzi [3] and in the data set with Trypanosoma cruzi [5] was 3 throughout. In addition, the MNTC at 24 h in data set [4] was determined as 10 µg/mL.
On to `COc1ccc(C2=NOC3(SCc4ccccc4C3=O)C2c2ccc(OC)cc2)cc1` (stereo unspecified), for which the IC50 in the data set with Trypanosoma cruzi [1] (setting [7]) is 1.95 µM; with Trypanosoma cruzi [2] (setting [8]) it was 1.5 µM. Besides, the MNTC at 24 h in data set [4] is 50 µg/mL.
With `O=C1c2ccccc2CSC12ON=C(c1ccc(Cl)cc1)C2c1ccc([N+](=O)[O-])cc1` (stereo unspecified), the IC50 with Trypanosoma cruzi [1] (setting [7]) amounted to 20.5 µM; in the data set with Trypanosoma cruzi [2] (setting [8]) it was 22 µM. The MNTC at 24 h in data set [4] turned out to be 5 µg/mL.
In the case of `Cc1ccc(C2C(c3ccc([N+](=O)[O-])cc3)=NOC23SCc2ccccc2C3=O)cc1` (stereo unspecified), the figures for the IC50 in the data set on Trypanosoma cruzi [1] (setting [7]) and in the data set with Trypanosoma cruzi [2] (setting [8]) were 27.9 µM and 45.4 µM, respectively. Further, the MNTC at 24 h in data set [4] came out at 50 µg/mL.
Turning to `COc1ccc(C2C(c3ccccc3)=NOC23CSc2ccccc2C3=O)cc1` (stereo unspecified), the IC50 result in the data set with Trypanosoma cruzi [1] and in the data set on Trypanosoma cruzi [2] was “Not Active” throughout. Also, the Activity entry in data set [6] is “Non-toxic”.
With `Cc1ccc(C2=NOC3(CSc4ccccc4C3=O)C2c2ccccc2)cc1` (stereo unspecified), the IC50 result in the data set on Trypanosoma cruzi [1] and in the data set on Trypanosoma cruzi [2] was “Not Active” in each case. Also, the Activity entry in data set [6] is “Non-toxic”.
In the case of `COc1ccc(C2C(c3ccc(C)cc3)=NOC23CSc2ccccc2C3=O)cc1` (stereo unspecified), the IC50 result with Trypanosoma cruzi [1] and in the data set with Trypanosoma cruzi [2] was “Not Active” each time. Further, in data set [6], the Activity result is reported as “Non-toxic”.
On to `Cc1ccc(C2=NOC3(CSc4ccccc4C3=O)C2c2ccc([N+](=O)[O-])cc2)cc1` (stereo unspecified), for which the IC50 result in the data set with Trypanosoma cruzi [1] and in the data set with Trypanosoma cruzi [2] was “Not Active” in each case. Moreover, the Activity result in data set [6] was “Non-toxic”.
Turning to `O=C(Cn1ccnc1[N+](=O)[O-])NCc1ccccc1` [BENZNIDAZOLE], the IC50 with Trypanosoma cruzi [1] (setting [7]) was 6.6 µM.
Regarding `CC1CS(=O)(=O)CCN1/N=C/c1ccc([N+](=O)[O-])o1` (stereo unspecified) [NIFURTIMOX], the MNTC at 24 h in data set [4] worked out at 3.4 µM.

For the origin of these results see ChEMBL document CHEMBL3046533, “Molecular drug design, synthesis and pharmacophore site identification of spiroheterocyclic compounds: Trypanosoma crusi inhibiting studies” (Med Chem Res, 2013).
